Test results: US20040058983A1, “Plan-derived and synthetic phenolic compounds and plant extracts, effective in the treatment and prevention of chlamydial infections” (priority 2000, published 2004)
Where two headings read alike, the source gives them in different places.

What was measured:
HL cells = assay: Toxicity towards the host cells, Trypan blue staining, no infection; type: cell-based, human
Description: The determination was performed as in the previous tests but without any infection. The viability was determined with Trypan blue staining.

C. pneumoniae [1] = assay: Direct anti-chlamydial effect of compounds and mixtures on C. pneumoniae (Example 5); type: cell-based; settings: 50 μM; for inhibition at 50 µM: Chlamydia pneumoniae, read-out: Inhibition %
Description: Direct Anti-Chlamydial Effect of Plant-Derived Phenolic Compounds, Certain Synthetic Compounds and Mixtures on C. pneumoniae
The concentration used was 50 μM.
(§1) The cultivated HL cells are infected with C. pneumoniae EB's. The EB's which have invaded the cell are changed into the metabolically active reticulate body (RB) which are dividing by binary fission in the endosome vacuole or inclusion.
(§2) After a certain time (about 72 hr) the C. pneumoniae RB's are condensing back into EB's, after which the inclusions are broken, the host cells are broken and the EB's are liberated. In this method the intention is to verify the inclusions before the breaking up of the host cells.
(§3) On the day preceding the infection the host cells are inoculated on a 24-well plate: the cells are harvested by trypsinisation, they are suspended in ca. 5 ml of the nutrition liquid and counted in a Burker's chamber. Each well are seeded using a concentration of 250000-400000 cells/well for cultivation. Before the addition of the cells to the well is if necessary round cover glass (diameter 13 mm) put for staining. Nutrition liquid is added so that the volume is 1 ml/well. On the following day the cells are infected with the desired bacterium.
(§4) Solution to be used in the infection and containing chlamydiae particles is mixed throughout. The old nutrition liquid is aspirated away. By the infection the inoculum which has been stored at −70° C. is diluted to an IFU concentration of ca. 10^3 so that the volume of the solution is at least 200 μl/well on a 24-well plate. The cells are infected by centrifuging at 1600 rpm (550×g)/1 hr. The nutrition medium is aspirated away and changed to a maintenance medium containing cyclohexamide and also containing the studied compound (DMSO concentration 0.2%), 1 ml/well. The cells are incubated in a 5% CO2 atmosphere at +35° C. The cells infected with C. pneumoniae are incubated for 3 days. After 2-3 days the maintenance medium is removed and the cells washed with 1×1 ml of PBS. To the wells 200 μl of SPG are added for further infection, harvested with a pipette tip and transferred into tubes. This is used for infecting new cells in the same way as above to test the inhibition of infectivity (chlamydiasidic effect).
(§5) The nutrition medium, which is above the cover glass left for staining, is aspirated away. The infected cells are fixed on the cover glass with methanol for 10 min. The cover glass is removed from the well and -transferred onto a suitable fluorescein-conjugated monoclonal antibody on Parafilm in a moist chamber with the cell-containing side down. The cover glass is incubated for 30 min at +37° C. and washed twice with PBS and once with water. Finally it is dried. The cover glass is put with the cell-containing side down on an object glass containing a fixative (e.g. Mounting medium). When viewed under the fluorescent microscope, cell culture specimens infacted with chlamydiae show a characteristic apple-green fluorescence of inclusions against a red counterstained background.

[2] = Antioxidant effect, IC50 against DPPH; type: biochemical; settings: read-out: IC50 [moles L^−1] against DPPH′
From the text: (§6) In the following Table I some of the preferred plant-derived phenolic compounds according to the present invention, the effect of the compounds on the calcium influx to the cell, the antioxidant effect as well as the chemical structure of the compounds are presented.

C. trachomatis = assay: Direct anti-chlamydial effect on C. trachomatis, cultivation in McCoy cells; type: cell-based; settings: for Effect on C. trachomatis (in words): pretreated host cells; for inhibition at 0.5 µM / inhibition at 50 µM: Chlamydia trachomatis
Description: C. trachomatis, cultivation in McCoy cells. The test procedure otherwise the same as with C. pneumoniae.
(§7) As the host cell of C. pneumoniae in in vitro conditions HL cells are used. As the host cells of C. trachomatis in in vitro conditions McCoy cells often are used.
as §3, §4, §5

C. pneumoniae [3] = assay: Inhibition of the infectivity (chlamydiasidic effect), re-infection of new cells; type: cell-based; settings: for inhibition at 0.5 µM / inhibition at 50 µM: Chlamydia pneumoniae
Description: Inhibition of the Infectivity/C. pneumoniae
as §4, §5

Ca^2+ intake in the cell = assay: Effect of the compounds on the calcium influx (Ca2+ intake) to the cell; type: cell-based; settings: compound 20 μg/ml; − = decrease, + = increase
From the text: as §6

[4] = test system: C. pneumoniae K7 strain (clinical isolate); assay: Direct anti-chlamydial effect (inhibition of formation of inclusions), HL host cells; type: cell-based; settings: for Inhibition of the growth of C. pneumoniae (in words): concentration of 0.5-50 μg; for inhibition at 0.5 µM / inhibition at 50 µM: Chlamydia pneumoniae, read-out: Inhibition % of the DMSO control
From the text: The Direct Anti-Chlamydial Effect of Plant-Derived Phenolic Compounds (As Inhibition of Formation of Inclusions)/C. pneumoniae K7 Strain (Clinical Isolate)
as §1, §2, §7, §3, §4, §5

[5] = test system: C. pneumoniae K7 strain (clinical isolate); assay: as above; type: cell-based; settings: for inhibition at 0.5 µM / inhibition at 50 µM: Chlamydia pneumoniae, read-out: Inhibition % of the DMSO control (pre-treated)
[6] = 0.5 μM, McCoy cells pre-treated 1 day
[7] = 50 μM, McCoy cells pre-treated 1 day
[8] = 0.5 μM, host cells pre-treated 1 day
[9] = 50 μM, host cells pre-treated 1 day
[10] = 0.5 μM, formation of inclusions
[11] = 0.5 μM, host cells incubated 1 day with compound before infection
[12] = 50 μM, host cells incubated 1 day with compound before infection
[13] = 0.5 μM, McCoy cells pre-treated 1 day, read-out: Inhibition % of the DMSO control (pre-treated)
[14] = 0.5 μM, McCoy cells, read-out: Inhibition % of the DMSO control
[15] = 50 μM, McCoy cells pre-treated 1 day, read-out: Inhibition % of the DMSO control (pre-treated)
[16] = 50 μM, McCoy cells, read-out: Inhibition % of the DMSO control
[17] = 0.5 μM, host cells pre-treated 1 day, read-out: Inhibition % of the DMSO control (pre-treated)
[18] = 0.5 μM, read-out: Inhibition % of the DMSO control
[19] = 50 μM, host cells pre-treated 1 day, read-out: Inhibition % of the DMSO control (pre-treated)
[20] = 50 μM, read-out: Inhibition % of the DMSO control

SMILES	Toxicity test HL-C (HL cells; 0.005 μM) [%]	Toxicity test HL-C (pre-treated) (HL cells; 0.005 μM) [%]	Toxicity test HL-C (HL cells; 0.05 μM) [%]	Toxicity test HL-C (pre-treated) (HL cells; 0.05 μM) [%]	Toxicity test HL-C (HL cells; 0.5 μM) [%]	Toxicity test HL-C (pre-treated) (HL cells; 0.5 μM) [%]	Toxicity test HL-C (HL cells; 5 μM) [%]	Toxicity test HL-C (pre-treated) (HL cells; 5 μM) [%]	Toxicity test HL-C (HL cells; 50 μM) [%]	Toxicity test HL-C (pre-treated) (HL cells; 50 μM) [%]	Inhibition % (C. pneumoniae [1]) [%]	IC50 [2] [µM]	Inhibition % of the DMSO control (C. trachomatis; 0.5 μM, McCoy cells) [%]	Inhibition % of the DMSO control (pre-treated) (C. trachomatis; [6]) [%]	Inhibition % of the DMSO control (C. trachomatis; 50 μM, McCoy cells) [%]	Inhibition % of the DMSO control (pre-treated) (C. trachomatis; [7]) [%]	Effect on C. trachomatis (in words) (C. trachomatis)	Inhibition % of the DMSO control (C. pneumoniae [3]; 0.5 μM) [%]	Inhibition % of the DMSO control (pre-treated) (C. pneumoniae [3]; [8]) [%]	Inhibition of the growth of C. pneumoniae (in words) [4]	other results
O=c1c(O)c(-c2ccc(O)cc2O)oc2cc(O)cc(O)c12 [Morin]	8.3	14.4	9.0	8.1	8.4	6.4	8.3	12.7	11.2	9.7	100	23.9	0	100	0	100	particularly effective	81	53	inhibited the growth	Inhibition % of the DMSO control (C. pneumoniae [3]; 50 μM): 94%; Inhibition % of the DMSO control (pre-treated) (C. pneumoniae [3]; [9]): 76%; Effect on Ca^2+ intake [%] (Ca^2+ intake in the cell): +48.0%; Inhibition % of the DMSO control [4, 10]: 80%; Inhibition % of the DMSO control ([4]; 50 μM, formation of inclusions): 99%; Inhibition % of the DMSO control (pre-treated) [5, 11]: 62%; Inhibition % of the DMSO control (pre-treated) [5, 12]: 96%
CCCCCCCCOC(=O)c1cc(O)c(O)c(O)c1 [Octyl gallate]	8.0	7.0	7.4	7.1	7.9	5.0	8.8	8.5	16.4	14.8		17								inhibited the growth	inhibition at 50 µM (C. pneumoniae [1]): 100%; inhibition at 0.5 µM (C. trachomatis; [13]): 0%; inhibition at 0.5 µM (C. trachomatis; [14]): 0%; inhibition at 50 µM (C. trachomatis; [15]): 88%; inhibition at 50 µM (C. trachomatis; [16]): 14%; inhibition at 0.5 µM (C. pneumoniae [3]; [17]): 42%; inhibition at 0.5 µM (C. pneumoniae [3]; [18]): 59%; inhibition at 50 µM (C. pneumoniae [3]; [19]): 100%; inhibition at 50 µM (C. pneumoniae [3]; [20]): 100%; inhibition at 20 µg/mL (Ca^2+ intake in the cell): 92.2%; inhibition at 0.5 µM [4]: 82%; inhibition at 50 µM [4]: 100%; inhibition at 0.5 µM [5]: 62%; inhibition at 50 µM [5]: 100%
O=c1c(O)c(-c2ccc(O)c(O)c2)oc2cc(O)cc(O)c12 [Quercetin]	7.4	7.9	11.7	7.2	7.0	3.3	9.2	8.1	10.5	10.5		10.7					particularly effective			inhibited the growth	inhibition at 50 µM (C. pneumoniae [1]): 90%; inhibition at 0.5 µM (C. trachomatis; [13]): 20%; inhibition at 0.5 µM (C. trachomatis; [14]): 0%; inhibition at 50 µM (C. trachomatis; [15]): 100%; inhibition at 50 µM (C. trachomatis; [16]): 0%; inhibition at 0.5 µM (C. pneumoniae [3]; [17]): 0%; inhibition at 0.5 µM (C. pneumoniae [3]; [18]): 58%; inhibition at 50 µM (C. pneumoniae [3]; [19]): 0%; inhibition at 50 µM (C. pneumoniae [3]; [20]): 76%; inhibition at 20 µg/mL (Ca^2+ intake in the cell): -54.1%; inhibition at 0.5 µM [4, 10]: 68%; inhibition at 50 µM ([4]; 50 μM, formation of inclusions): 90%; inhibition at 0.5 µM [5, 11]: 77%; inhibition at 50 µM [5, 12]: 90%
COc1cc(O)c2c(=O)c(O)c(-c3ccc(O)c(O)c3)oc2c1 [Rhamnetin]	10.9	6.6	9.5	7.6	10.0	10.6	9.6	8.0	15.7	16.9	100	12.1	0	17	0	100	particularly effective	100	75	inhibited the growth	Inhibition % of the DMSO control (C. pneumoniae [3]; 50 μM): 100%; Inhibition % of the DMSO control (pre-treated) (C. pneumoniae [3]; [9]): 67%; Effect on Ca^2+ intake [%] (Ca^2+ intake in the cell): +6.63%; Inhibition % of the DMSO control [4, 10]: 73%; Inhibition % of the DMSO control ([4]; 50 μM, formation of inclusions): 99%; Inhibition % of the DMSO control (pre-treated) [5, 11]: 50%; Inhibition % of the DMSO control (pre-treated) [5, 12]: 59%
